Source: patent publication US20240165089A1, “METHOD FOR TREATING MYOPIA WITH VINPOCETINE” (EYE HOSPITAL, WENZHOU MEDICAL UNIVERSITY, priority 2021, published 2024)
Like-named read-outs stand apart in the source and are kept apart here.

Experiments:
[1] = tested on: choroid of FDM guinea pigs; assay: choroidal thickness and blood flow by OCTA, FDM group; assay type: in vivo, guinea pig
Description: The choroidal blood flow parameters and choroidal thickness were measured for the animals in the above FDM group after 1 week of continuous administration and at the end of the 2 week-administration experiment and for the animals in the LIM group at the end of the 7 day-administration experiment. Choroidal blood flow parameters and thickness were measured using a modified commercial OCTA (Spectralis HRA+OCT, OCTA, Heidelberg, Germany) which is more suitable for animal eyeballs. Before the measurement, the guinea pigs were fully anesthetized (a mixture of ketamine hydrochloride 60 mg/kg and xylazine hydrochloride 9 mg/kg, intraperitoneally injected), and then the guinea pig OCTA images were obtained, and the measurement results were quantified through a self-written program (MatLab R2017a, MathWorks). Real-time quantitative detection of choroidal blood flow and thickness in guinea pigs was achieved (Sen Zhang, Invest Ophthalmol Vis Sci. 2019 Jul. 1; 60(8):3074-3083).
Vinpocetine is known to improve blood circulation. The inventors used the method of example 1 to detect changes of indicator signals of choroidal thickness ChT and choroidal blood flow ChBP of FDM (1 week and 2 weeks of administration) and LIM (1 week of administration) at different time points during the administration cycle.

[2] = rats; cited from earlier work
rabbits = conditions: rabbit, in vivo, cited from earlier work
[3] = tested on: lens induction myopia (LIM, −4D lens) guinea pig model; assay: lens induction myopia (LIM) guinea pig model, injection around the eyeball; assay type: in vivo
Description: The form deprivation and lens-induced guinea pig myopia model is a classic and recognized myopia animal model in the field. The model can be used to evaluate the efficacy and safety of drugs for treating myopia. The construction method of the model is well known to those skilled in the art. The animal modeling and administration route in this application refer to the scientific literature previously published by this research group (Sen Zhang, Invest Ophthalmol Vis Sci. 2019 Jul. 1; 60(8):3074-3083.; Miaozhen Pan, Exp Eye Res. 2021 January; 202:108332.), specifically, this application uses the following exemplary construction method of the form deprivation and lens-induced guinea pig myopia model:
three-week-old tricolor guinea pigs (both male and female, simulating humans aged 3-26 years old) were used and raised in the experimental animal room of Wenzhou Medical University in a 12-hour light (400-500 lux)/12-hour dark environment with free access to water and food. The myopia model adopted monocular form deprivation (FD) and lens induction (LI) modeling methods. […] In the lens induction group, a −4D lens was fixed in front of the right eye of the animal, and the left eye obtained normal vision. For the above animals, the lenses were cleaned twice a day to prevent the lenses from blurring. The animals in the experimental group were administrated at 9:00-9:30 am every day. […] The administration process for each animal was controlled in about 10 seconds. Administration began on the day of modeling, and was continuous for 2 weeks for the form deprivation group and was continuous for 1 week for the lens induction group. This experiment has been reviewed by the Experimental Animal Ethics Committee of Wenzhou Medical University.
The inventors prepared a 5 μM (i.e., 1.75 μg/mL) vinpocetine stock solution and stored at −80° C. The solvent was physiological saline. Before administration experiment, the stock solution was diluted with physiological saline to 1 μM, 0.1 μM, and 0.01 μM, respectively. During the formulation process of vinpocetine eye drops, the solubility can be increased by using conventional physical methods such as heating and stirring, or acids can also be used to adjust the PH value to increase solubility, and finally, the PH value can be adjusted to 7.31.
2. Lens induction plus drug injection group: • wearing a −4D lens on one eye and injecting vinpocetine (0.01 μM: 0.1 mL/day) into the eye wearing the −4D lens for 1 weeks, sample size=12; • wearing a −4D lens on one eye and injecting vinpocetine (0.1 μM: 0.1 mL/day) into the eye wearing the −4D lens for 1 weeks, sample size=12; • wearing a −4D lens on one eye and injecting vinpocetine (1.00 μM 0.1 mL/day) into the eye wearing the −4D lens for 1 weeks, sample size=13; • 3.
All animals in the same model efficacy experiment were measured within the same time period, and the first measurement was at 3 weeks of age, that is, before drug administration. Refractions and eyeball parameters were measured for the animals in the above FDM group before the experiment, after 1 week of administration in the experiment and after 2 weeks of administration in the experiment and for the animals in the LIM group before the experiment, after 3 days of administration in the experiment and after 7 days of administration in the experiment, respectively. The refractions were measured using an eccentric infrared photoretinoscope (EIR) built in our laboratory. Each eye was measured three times and the average was taken as the final result. The axial parameters of the guinea pig's eyeballs were measured using the A-ultrasound probe in the CinescanA/B ultrasonic diagnostic instrument (QuantelMedical, Aviso, France). The ultrasonic frequency was 11 MHz. The ultrasonic propagation speeds of different refractive media of the eyeball were set as: 1557.5 m/s for the anterior chamber, 1723.3 m/s for the lens, and 1540 m/s for the vitreous body.

CCOC(=O)C1=C[C@]2(CC)CCCN3CCc4c(n1c1ccccc41)[C@@H]32 [vinpocetine]
choroidal thickness ChT ([1]; 1 and 2 weeks, vs solvent injection group, not statistically significant): only slightly increased
choroidal blood perfusion ChBP ([1]; 1 and 2 weeks, vs solvent injection group, p=0.285): only slightly increased
effect on choroidal vasodilation compared with atropine ([1]; vinpocetine 0.1 μM, 2 weeks): not as good as atropine
improvement of choroidal blood flow among vinpocetine concentrations ([1]; vinpocetine 1 μM, 1 week): least effective at improving choroidal blood flow
oral bioavailability [2]: 52%
toxicity findings (rabbits; 75 mg/kg/day): without any obvious abnormalities
toxicity findings (rabbits; 150 mg/kg): toxic effects of weight loss and food intake reduction
effect of myopia treatment compared with the negative control group ([3]; high-, medium- and low-concentration vinpocetine (1, 0.1, 0.01 μM), 3 days): showed the effect of myopia treatment
refraction difference between the experimental eye and the contralateral eye ([3]; vinpocetine 1 μM 0.1 mL/day peribulbar injection, 3 days): −2.00±0.82 D
axial length difference between the experimental eye and the contralateral eye ([3]; vinpocetine 1 μM, 3 days): 0.04±0.02 mm
inhibition rate for the axial length ([3]; vinpocetine 1 μM, 3 days): 55.5%
inhibition rate for the vitreous chamber depth ([3]; vinpocetine 1 μM, 3 days): 58.8%
refraction inhibition rate ([3]; vinpocetine 1 μM, 3 days): 38.5%
vitreous chamber depth difference between the experimental eye and the contralateral eye ([3]; vinpocetine 1 μM, 3 days): 0.03±0.03 mm
axial length difference between the experimental eye and the contralateral eye ([3]; vinpocetine 1 μM, 7 days): 0.05±0.02 mm
inhibition rate for the axial length ([3]; vinpocetine 1 μM, 7 days): 53.8%
inhibition rate for the vitreous chamber depth ([3]; vinpocetine 1 μM, 7 days): 49.8%
refraction difference between the experimental eye and the contralateral eye ([3]; vinpocetine 1 μM, 7 days): −2.61±1.17 D
refraction inhibition rate ([3]; vinpocetine 1 μM, 7 days): 36.3%
vitreous chamber depth difference between the experimental eye and the contralateral eye ([3]; vinpocetine 1 μM, 7 days): 0.05±0.02 mm
